Assay results: ChEMBL document CHEMBL3885881, “DrugMatrix”

Organism: Rattus norvegicus
Assay type: toxicity, organism-based, Sprague-Dawley
Settings: in vivo, po, route oral GAVAGE, vehicle 100 % SALINE; for ABSOLUTE EOSINOPHIL / ABSOLUTE LYMPHOCYTE / ABSOLUTE MONOCYTE / ABSOLUTE SEGMENTED NEUTROPHIL / BASOPHIL / EOSINOPHIL / ERYTHROCYTE COUNT / HEMATOCRIT / HEMOGLOBIN / LEUKOCYTE COUNT / LYMPHOCYTE / MEAN CORPUSCULAR HEMOGLOBIN / MEAN CORPUSCULAR HEMOGLOBIN CONCENTRATION / MEAN CORPUSCULAR VOLUME / MONOCYTE / NEUTROPHIL / NUCLEATED RED BLOOD CELLS / PLATELET COUNT: tissue Blood; for ALANINE AMINOTRANSFERASE / ALBUMIN / ALKALINE PHOSPHATASE / ASPARTATE AMINOTRANSFERASE / BLOOD UREA NITROGEN / CARBON DIOXIDE / CHLORIDE / CHOLESTEROL / CREATINE PHOSPHOKINASE / CREATININE / GLUCOSE / LACTATE DEHYDROGENASE / LIPASE / PHOSPHORUS / POTASSIUM / SODIUM / TOTAL BILIRUBIN / TOTAL PROTEIN / URIC ACID: tissue Plasma
[1] = 3000 mg/kg, 24 h, dose level Low, time 1 day
[2] = 6000 mg/kg, 6 h, dose level High, time 0.25 day
[3] = 6000 mg/kg, 24 h, dose level High, time 1 day

Description: DrugMatrix - Regimen: Single

CCO [ALCOHOL]
ABSOLUTE EOSINOPHIL [1]: 30.5 CELLS/uL
ABSOLUTE LYMPHOCYTE [1]: 9902 CELLS/uL
ABSOLUTE MONOCYTE [1]: 124.33 CELLS/uL
ABSOLUTE SEGMENTED NEUTROPHIL [1]: 1059.83 CELLS/uL
BASOPHIL [1]: 0%
EOSINOPHIL [1]: 0.17%
ERYTHROCYTE COUNT [1]: 5.39 x10E6/uL
HEMATOCRIT [1]: 34.67%
HEMOGLOBIN [1]: 13.7 G/DL
LEUKOCYTE COUNT [1]: 11.12 x10E3/uL
LYMPHOCYTE [1]: 88.17%
MEAN CORPUSCULAR HEMOGLOBIN [1]: 25.42 pg
MEAN CORPUSCULAR HEMOGLOBIN CONCENTRATION [1]: 39.57 G/DL
MEAN CORPUSCULAR VOLUME [1]: 64.33 fL
MONOCYTE [1]: 1.17%
NEUTROPHIL [1]: 10.5%
NUCLEATED RED BLOOD CELLS [1]: 0 /100WBC
PLATELET COUNT [1]: 1071.33 x10E3/uL
ALANINE AMINOTRANSFERASE [1]: 70.67 u/L
ALBUMIN [1]: 4.18 G/DL
ALKALINE PHOSPHATASE [1]: 267 u/L
ASPARTATE AMINOTRANSFERASE [1]: 95.33 u/L
BLOOD UREA NITROGEN [1]: 11.67 mg/dL
CARBON DIOXIDE [1]: 35.67 mmol/L
CHLORIDE [1]: 99.5 MEQ/L
CHOLESTEROL [1]: 80.17 mg/dL
CREATINE PHOSPHOKINASE [1]: 199.5 u/L
CREATININE [1]: 0.21 mg/dL
GLUCOSE [1]: 141 mg/dL
LACTATE DEHYDROGENASE [1]: 59.67 u/L
LIPASE [1]: 9.67 u/L
PHOSPHORUS [1]: 10.12 mg/dL
POTASSIUM [1]: 5.58 MEQ/L
SODIUM [1]: 145.6 MEQ/L
TOTAL BILIRUBIN [1]: 0.17 mg/dL
TOTAL PROTEIN [1]: 6.1 G/DL
URIC ACID [1]: 0.45 mg/dL
ABSOLUTE EOSINOPHIL [2]: 29.17 CELLS/uL
ABSOLUTE LYMPHOCYTE [2]: 14165.5 CELLS/uL
ABSOLUTE MONOCYTE [2]: 257.5 CELLS/uL
ABSOLUTE SEGMENTED NEUTROPHIL [2]: 3164.5 CELLS/uL
BASOPHIL [2]: 0%
EOSINOPHIL [2]: 0.17%
ERYTHROCYTE COUNT [2]: 5.58 x10E6/uL
HEMATOCRIT [2]: 37.53%
HEMOGLOBIN [2]: 13.8 G/DL
LEUKOCYTE COUNT [2]: 17.62 x10E3/uL
LYMPHOCYTE [2]: 81.33%
MEAN CORPUSCULAR HEMOGLOBIN [2]: 24.78 pg
MEAN CORPUSCULAR HEMOGLOBIN CONCENTRATION [2]: 36.83 G/DL
MEAN CORPUSCULAR VOLUME [2]: 67.33 fL
MONOCYTE [2]: 1.33%
NEUTROPHIL [2]: 17.17%
NUCLEATED RED BLOOD CELLS [2]: 0 /100WBC
PLATELET COUNT [2]: 1061.5 x10E3/uL
ALANINE AMINOTRANSFERASE [2]: 46 u/L
ALBUMIN [2]: 3.8 G/DL
ALKALINE PHOSPHATASE [2]: 242.17 u/L
ASPARTATE AMINOTRANSFERASE [2]: 95.83 u/L
BLOOD UREA NITROGEN [2]: 12.33 mg/dL
CARBON DIOXIDE [2]: 17.17 mmol/L
CHLORIDE [2]: 105.33 MEQ/L
CHOLESTEROL [2]: 77 mg/dL
CREATINE PHOSPHOKINASE [2]: 431.5 u/L
CREATININE [2]: 0.13 mg/dL
GLUCOSE [2]: 194.5 mg/dL
LACTATE DEHYDROGENASE [2]: 355.33 u/L
LIPASE [2]: 9.33 u/L
PHOSPHORUS [2]: 16.82 mg/dL
POTASSIUM [2]: 5.94 MEQ/L
SODIUM [2]: 144.57 MEQ/L
TOTAL BILIRUBIN [2]: 0.0667 mg/dL
TOTAL PROTEIN [2]: 5.12 G/DL
URIC ACID [2]: 2.45 mg/dL
ABSOLUTE EOSINOPHIL [3]: 0 CELLS/uL
ABSOLUTE LYMPHOCYTE [3]: 13674.83 CELLS/uL
ABSOLUTE MONOCYTE [3]: 258.33 CELLS/uL
ABSOLUTE SEGMENTED NEUTROPHIL [3]: 983.5 CELLS/uL
BASOPHIL [3]: 0%
EOSINOPHIL [3]: 0%
ERYTHROCYTE COUNT [3]: 5.27 x10E6/uL
HEMATOCRIT [3]: 34.4%
HEMOGLOBIN [3]: 13.68 G/DL
LEUKOCYTE COUNT [3]: 14.92 x10E3/uL
LYMPHOCYTE [3]: 91.33%
MEAN CORPUSCULAR HEMOGLOBIN [3]: 26.03 pg
MEAN CORPUSCULAR HEMOGLOBIN CONCENTRATION [3]: 39.82 G/DL
MEAN CORPUSCULAR VOLUME [3]: 65.33 fL
MONOCYTE [3]: 1.83%
NEUTROPHIL [3]: 6.83%
NUCLEATED RED BLOOD CELLS [3]: 0 /100WBC
PLATELET COUNT [3]: 1124.67 x10E3/uL
ALANINE AMINOTRANSFERASE [3]: 81 u/L
ALBUMIN [3]: 3.95 G/DL
ALKALINE PHOSPHATASE [3]: 284.5 u/L
ASPARTATE AMINOTRANSFERASE [3]: 90.67 u/L
BLOOD UREA NITROGEN [3]: 11.5 mg/dL
CARBON DIOXIDE [3]: 32.5 mmol/L
CHLORIDE [3]: 100.67 MEQ/L
CHOLESTEROL [3]: 68.83 mg/dL
CREATINE PHOSPHOKINASE [3]: 207.83 u/L
CREATININE [3]: 0.3 mg/dL
GLUCOSE [3]: 144 mg/dL
LACTATE DEHYDROGENASE [3]: 74 u/L
LIPASE [3]: 9 u/L
PHOSPHORUS [3]: 10.7 mg/dL
POTASSIUM [3]: 5.34 MEQ/L
SODIUM [3]: 145 MEQ/L
TOTAL BILIRUBIN [3]: 0.15 mg/dL
TOTAL PROTEIN [3]: 5.78 G/DL
URIC ACID [3]: 0.53 mg/dL
